Measured values as given in patent US12508261B2, “Methods of treating depression with vortioxetine” (Rundle Research LLC, priority 2017, dated 2025).
Several values for one entry are separate records, joined by “and”; a condition that tells them apart may be missing. Equal entries are not always repeated. Where two headings read alike, the source gives them in different places.

Experiment: Clinical pharmacokinetic study (RUN-001): vortioxetine 5 mg once daily for 29 days, then 28 days washout, obese vs normal-weight subjects
Type: in vivo, human
Conditions: for Observed Clss: (5 mg/day)/AUC29; for Predicted CLss: (5 mg/day)/Css; for Observed accumulation ratio: AUC29/AUC1; for Predicted accumulation ratio: from elimination rate constant and 1 day dose interval
Description: To test if the obese patients would require different washout guidelines for preventing serotonin syndrome, 16 obese subjects (BMI≥35) and 13 normal subjects (BMI<25) completed a clinical trial where they were administered daily with low doses (5 mg/day) of vortioxetine for 29 days in a controlled study. All subjects were subsequently tracked for 28 days after discontinuing vortioxetine on day 29. Blood samples were collected and processed according to standard techniques.
The normal-weight control group consisted of healthy male and female volunteers aged 18 to 45 years. Their body mass index (BMI) values fell in the range of […]. […] Normal weight and obese subjects were matched as closely as possible for gender and age.
CYP2D6 genotype status was determined from whole blood samples drawn from each subject. Known alleles of CYP2D6 were tested for, as well as the presence of gene duplications (LabCorp, Inc.). CYP2D6 metabolizer status was categorized as ultra-rapid, extensive, intermediate, or poor. Ultra-rapid and poor metabolizers were not included in the study.
All subjects received vortioxetine, 5 mg once daily in the morning, for 29 days. The first dose was on Day 1, and the last dose was on Day 29. Blood sampling continued for another 28 days after the last dose, through Day 57.
Subjects spent 12 hours in the study unit on Day 1 (first dose of vortioxetine) and Day 29 (last dose of vortioxetine). On those two study days, venous blood samples (7 mL each) were drawn prior to the dose of vortioxetine, and at 1, 2, 4, 6, 8, 10, and 12 hours after dosage.
During the 29-day period of daily vortioxetine administration, subjects returned to the study unit in the morning of the following study days: 2, 3, 5, 8, 10, 12, 15, 17, 19, 22, 24, 26, and 29. At each visit, a single venous blood sample (7 mL) was drawn before the daily dose of vortioxetine. Subjects underwent a brief interview to assess subjective effects and possible adverse events. Subjects were then discharged until the next scheduled visit. They were provided with vortioxetine doses sufficient for daily morning administration until the next visit. No more than 2 consecutive doses of vortioxetine were taken on an outpatient basis.
On Day 29 (the final dose of vortioxetine), subjects spent 12 hours in the study unit as described above. They returned to the study unit for a single blood sample on the mornings of the following Days: 30, 31, 33, 36, 38, 40, 43, 45, 47, 50, 52, 54, and 57.
Plasma concentrations of vortioxetine were determined by liquid chromatography—mass spectrometry using a Shimadzu HPLC system coupled to a Sciex API-4000 mass spectrometer.
The internal standard (vortioxetine-d8) was added to calibration standards, quality control samples, and unknown study samples. All samples were extracted with methyl tert-butyl ether. The organic phase was separated and evaporated to dryness; the reconstituted extract was injected into the HPLC system. The HPLC column was a Unison UK-C18, 50 mm×2 mm, 3 micron particle size. The mobile phase consisted of an organic component (0.1% formic acid in acetonitrile) and an aqueous component (0.1% formic acid and 2 mM ammonium acetate in water). This was delivered in gradient mode at a net flow rate of 0.4 mL/min, with the organic fraction varying from 40% to 96%. m/z monitored were: 299.1/150.1 for vortioxetine, and 307.1/153 for vortioxetine-d8. The limit of quantitation was 0.1 ng/mL. […] All samples from a given study subject were extracted and analyzed at the same time using the same calibration standards.
Based on the clinical trials discussed above, several equations were derived which allow an individual to calculate the washout period (i.e., the time between stopping vortioxetine and initiating treatment with an MAOI). Data points to consisted of pre-dose plasma vortioxetine concentration (C) on each study day (t), both during (Days 1-29) and after (Days 30-57) the period of vortioxetine administration. […]

[1] = Normal-weight subjects, mean ± SD

In the case of `Cc1ccc(Sc2ccccc2N2CCNCC2)c(C)c1` [vortioxetine], the Css (Normal-weight subjects, 5 mg/day, mean ± SD) is reported as 3.75 ± 1.72 ng/mL, the “Observed Clss” value [1] is reported as 903 ± 450 mL/min and the “Predicted CLss” value [1] is reported as 1172 ± 679 mL/min. For the same molecule, the Observed accumulation ratio [1] was 4.46 ± 1.10, the Predicted accumulation ratio [1] was 3.72 ± 0.77 and the Css (Obese subjects, 5 mg/day, mean ± SD) was 4.23 ± 1.68 ng/mL. The “Observed Clss” value (Obese subjects, mean ± SD) was 809 ± 331 mL/min, the “Predicted CLss” value (Obese subjects, mean ± SD) was 935 ± 362 mL/min and the Observed accumulation ratio (Obese subjects, mean ± SD) was 5.24 ± 1.86. The Predicted accumulation ratio (Obese subjects, mean ± SD) was 5.22 ± 1.75, the half-life (both sexes, human, plasma, 5 mg/day, Normal-weight subjects, 5 mg/day, mean ± SD, read-out: Washout half-life (converted)) was 53 h and the half-life (both sexes, human, plasma, 5 mg/day, Obese subjects (BMI>=35), 5 mg/day, mean ± SD, read-out: Washout half-life (converted)) was 78.2 h. For the same molecule, the half-life (both sexes, human, plasma, 5 mg/day, normal weight patients, read-out: elimination half-life (converted)) was 53 h, the concentration at 504 h (both sexes, human, plasma, 5 mg/day, normal patients (non-obese and/or normal CYP2D6 metabolizers), read-out: vortioxetine remaining in the blood plasma 21 days after stopping) was 0.54 ng/mL and the AUC(0-t) (both sexes, human, plasma, oral, 5 mg/day, Normal-weight subjects, 5 mg/day, mean ± SD, read-out: AUC0-24 Day 1) was 24.8 ± 8.1 ng·h/mL. It also gave an AUC(0-t) (both sexes, human, plasma, oral, 5 mg/day, Normal-weight subjects, 5 mg/day, mean ± SD, read-out: AUC0-24 Day 29) of 112 ± 48.7 ng·h/mL, a half-life (both sexes, human, plasma, oral, 5 mg/day, Obese subjects (BMI>=35), 5 mg/day, mean ± SD, read-out: Accumulation half-life (converted)) of 79.7 h and an AUC(0-t) (both sexes, human, plasma, oral, 5 mg/day, Obese subjects, 5 mg/day, mean ± SD, read-out: AUC0-24 Day 1) of 22.6 ± 4.2 ng·h/mL. The AUC(0-t) (both sexes, human, plasma, oral, 5 mg/day, Obese subjects, 5 mg/day, mean ± SD, read-out: AUC0-24 Day 29) was 119 ± 46.3 ng·h/mL, the half-life (both sexes, human, plasma, oral, 5 mg/day, normal subjects, read-out: plasma elimination half-life, range) was 30 to 80 h and the half-life (both sexes, human, plasma, oral, 5 mg/day, obese subjects, read-out: plasma elimination half-life, range) was 54 to 171 h. It also gave a half-life (human, plasma, 5 mg/day, one obese subject, CYP2D6 intermediate metabolizer (FIG. 8), read-out: accumulation half-life (converted)) of 173 h, a half-life (human, plasma, 5 mg/day, one obese subject, CYP2D6 intermediate metabolizer (FIG. 8), read-out: washout half-life (converted)) of 168 h and a half-life (human, plasma, im, 5 mg/day, individual subject, Normal cohort (BMI<25), IM, read-out: T1/2 (converted)) of 71.8 h. It also gave a half-life (human, plasma, im, 5 mg/day, individual subject, Obese cohort (BMI>=35), IM, read-out: T1/2 (converted)) of 171 h, a Css (individual subject, Normal cohort (BMI<25), IM, 5 mg/day) of 7.8 ng/mL and a Css (individual subject, Obese cohort (BMI>=35), IM, 5 mg/day) of 9.27 ng/mL. For the same molecule, the Css (individual subjects, Normal cohort (BMI<25), EM, 5 mg/day) was 2.01 ng/mL and 3.31 ng/mL and 3.29 ng/mL and 3.51 ng/mL and 4.06 ng/mL and 3.21 ng/mL and 1.4 ng/mL and 1.54 ng/mL and 5.24 ng/mL and 5.42 ng/mL and 4.14 ng/mL and 3.13 ng/mL, the Css (individual subjects, Obese cohort (BMI>=35), EM, 5 mg/day) was 4.32 ng/mL and 4.58 ng/mL and 2.08 ng/mL and 4.57 ng/mL and 1.97 ng/mL and 3.44 ng/mL and 4.8 ng/mL and 4.75 ng/mL and 4.1 ng/mL and 3.22 ng/mL and 3.39 ng/mL and 3.38 ng/mL and 4.66 ng/mL and 4.85 ng/mL and the “washout period needed to attain about 0.14% of the initial plasma concentration” value (obese individuals, Equation 2) was 31.5 days. For the same molecule, the “time with measurable drug plasma concentrations after discontinuing vortioxetine” value (obese subjects, 5 mg/day) was “at least 28 days”.
